Marks after values point to notes of the source that are not given here.
Legend:
HSV-1 [1] = assay: Time studies of HSV-1 inhibition (PrestoBlue); format: cell-based, herpes simplex virus type 1; details: Rg3 50 μM
Procedure: Time Studies. For virus inhibition studies described above, reagent 20(S)-Rg3 and virus were added to cells simultaneously. To evaluate the potential mode of action of Rg3, various combinations of valacyclovir, Rg3 and HSV-1 were tested at different time periods. The following combinations were evaluated at both one hour and four hours: • Virus applied to cells first (for one hour or four hours), followed by addition of valacyclovir, Rg3 or both valacyclovir and Rg3 to the cells; • Valacyclovir or Rg3 or both valacyclovir and Rg3 applied to cells first (for one or four hours), followed by virus; • Valacyclovir or Rg3 incubated together with virus first for one or four hours then added to cells.
All procedures described for evaluation of virus inhibition were followed in identical fashion as outlined for the PrestoBlue procedure except valacyclovir was used at a constant concentration of 16 μM and 20(S)-Rg3 at 50 μM.

normal WI 38 cells = details: 120 μM; cited from earlier work
HSV-1 [2] = assay: Virus inhibition, HSV-1 on Vero cells (PrestoBlue); format: cell-based, herpes simplex virus type 1 (MacIntyre strain)
Procedure: (§1) Viruses and Quantification. Herpes simplex virus type 1 (HSV-1, MacIntyre strain, ATCC, VR-539) or herpes simplex virus type 2 (HSV-2, ATCC, VR-734) were used in these studies. Virus titer was determined by plaque assay. Briefly, following 2 hour-adsorption of various virus dilutions onto a Vero cell monolayer in a 24-well plate, the medium was removed and cells were overlaid with 1.5% carboxymethylcellulose (Sigma Chemical Company, St. Louis, Mo.) and incubated 48 hours at 37° C. with 5% CO2. After incubation, cells were fixed with methanol, stained with Giemsa (Sigma Chemical Company, St. Louis, Mo.) and plaques were counted. Each virus dilution was prepared in quadruplicate.
(§2) Cytotoxicity and Virus Inhibition. All ginsenosides, isomers, and protopanaxadiols were evaluated for toxic effects on Vero cells prior to anti-viral testing. Cells were seeded at 5000 cells/well in a black 96-well plate with clear bottom in a volume of 100 μL and allowed to attach for 24 hours. The P. ginseng compounds were prepared in DMSO at 100 μM and were taken through serial two-fold dilutions to determine the concentration when the rate of cell death was less than 10% compared to control, untreated cells. Each dilution was tested in three wells and all assays were repeated three times. Following a 48 hour-incubation at 37° C. in 5% CO2, 11 μL of PrestoBlue (Invitrogen, Carlsbad, Calif.) was added to each well and the plate was incubated for an additional 30 minutes. PrestoBlue determines cell viability by changing from blue to red as resazurin is reduced to resorufin by viable cells. Following the PrestoBlue incubation, fluorescence was determined by spectrophotometric reading using Soft Max Pro (Molecular Diagnostics, San Jose, Calif., USA).
(§3) For cytotoxicity testing, 4 μL of dilutions of the ginsenosides or protopanaxadiols were added to 396 μL of medium 199 and 100 μL of this mixture was added to each of three wells. For anti-viral testing, 4 μL of the non-toxic reagent and 4 μL of HSV-1 or HSV-2 diluted to an MOI of 0.1 were added to 392 μL of medium 199 and 100 μL of this mixture was added to each of three wells. Virus inhibition was determined by comparing the cell death of reagent-exposed cells with cell death of control cells only receiving virus. The 50% inhibitory concentration (IC50) was determined through a series of two-fold dilutions and calculation by linear regression analysis.

HSV-2 = assay: Virus inhibition, HSV-2 on Vero cells (PrestoBlue); format: cell-based, herpes simplex virus type 2
Procedure: as §1, §2, §3

Vero cells = assay: Cytotoxicity on Vero cells (PrestoBlue); format: cell-based; details: for Percent Cell Death: African green monkey, 48 h
Procedure: Cells. Vero cells (American Type Culture Collection (ATCC), Manassas, VA, CCL-81) were maintained in medium 199 (Sigma Chemical Company, St. Louis, MO) that was supplemented with 8% fetal bovine serum (Invitrogen, Carlsbad, CA), 1.25 μg/mL fungizone (Invitrogen, Carlsbad, CA) and penicillin-streptomycin, 1000 U/mL and 1 mg/mL respectively (Sigma Chemical Company, St. Louis, MO). Cells were passed weekly using 0.1% trypsin (Sigma Chemical Company, St. Louis, MO) to detach the cells from the flasks. Cell quantification was done by trypan blue exclusion.
as §2, with “The P. ginseng compounds were prepared in DMSO at 100 μM and were taken through serial two-fold dilutions to determine the concentration when the rate of cell death was less than 10% compared to control, untreated cells.” left out
as §3

HSV-1 [3] = assay: Plaque reduction of HSV-1 on Vero cell monolayer; format: cell-based, herpes simplex virus type 1 (MacIntyre strain); details: valacyclovir 16 μM, 20(S)-Rg3 50 μM, about 50 PFU/well, 48 hours; for Number of Plaques: ± standard error
Procedure: as §1
The plaque assay procedure also was used to evaluate the percent plaque reduction; the only procedural change was that a constant virus concentration was used (50 plaque forming units (PFU)/well). Plaque reduction was measured by comparing the control (virus only), with valacyclovir (16 μM) with virus or 20(S)-Rg3 (50 μM) with virus. Sample wells were evaluated in quadruplicate. Following the 2 hour-virus adsorption, the methylcellulose-medium containing the same concentrations of valacyclovir or Rg3 was added to the appropriate wells. After 48 hours, plaques were fixed, stained and counted.

CC(C)=CCC[C@](C)(O)C1CC[C@]2(C)C1[C@H](O)CC1[C@@]3(C)CC[C@H](O[C@@H]4OC(CO)[C@@H](O)[C@@H](O)C4O[C@@H]4OC(CO)[C@@H](O)[C@@H](O)C4O)C(C)(C)C3CC[C@]12C (stereo partly drawn) [20(S)-Rg3, 20(S)-ginsenoside-Rg3]
Percent Inhibition of HSV-1 (HSV-1 [1]; HSV-1 incubated with compound(s) 4 hours prior to addition to cells, valacyclovir 16 μM): over 110%
Percent Inhibition of HSV-1 (HSV-1 [1]; HSV-1 incubated with compound(s) 4 hours prior to addition to cells, valacyclovir 16 μM, listed as Rg3): 113.7±14.8%
Percent Inhibition of HSV-1 (HSV-1 [1]; cells pretreated with compound 4 hours prior to HSV-1 addition): 90.1±11.1%
Percent Inhibition of HSV-1 (HSV-1 [1]; virus present on cells 4 hours prior to compound addition): 50.7±4.4%
effect on normal WI 38 cells (normal WI 38 cells): no effect
Percent Inhibition of HSV-1 (HSV-1 [2]; 50 μM, ± standard error): 82.3 ± 3.5%
Percent Inhibition of HSV-1 (HSV-1 [2]; 100 μM, ± standard error): nearly completely inhibited
inhibition at 25 µM (HSV-1 [2]; Human alphaherpesvirus 1, Vero, 25 μM, ± standard error, read-out: Percent Inhibition of HSV-1): 11 ± 2.6%
inhibition at 50 µM (HSV-1 [2]; Human alphaherpesvirus 1, Vero, 50 μM, ± standard error, read-out: Percent Inhibition of HSV-1): 80%
inhibition at 100 µM (HSV-1 [2]; Human alphaherpesvirus 1, Vero, 100 μM, ± standard error, read-out: Percent Inhibition of HSV-1): 90.3 ± 9.9%
IC50 (HSV-1 [2]; Human alphaherpesvirus 1, Vero, two-fold dilutions, linear regression, read-out: IC50 against HSV-1): ~35 µM
Percent Inhibition of HSV-2 (HSV-2; 50 μM, ± standard error): 81.7 ± 10.3%
Percent Inhibition of HSV-2 (HSV-2; 100 μM, ± standard error): nearly completely inhibited
inhibition at 25 µM (HSV-2; Human alphaherpesvirus 2, Vero, 25 μM, ± standard error, read-out: Percent Inhibition of HSV-2): 14.3 ± 3.3%
inhibition at 50 µM (HSV-2; Human alphaherpesvirus 2, Vero, 50 μM, ± standard error, read-out: Percent Inhibition of HSV-2): 80%
inhibition at 100 µM (HSV-2; Human alphaherpesvirus 2, Vero, 100 μM, ± standard error, read-out: Percent Inhibition of HSV-2): 115 ± 6.7%
IC50 (HSV-2; Human alphaherpesvirus 2, Vero, two-fold dilutions, linear regression, read-out: IC50 against HSV-2): ~35 µM
Percent Cell Death (Vero cells; 50 μM): (13.0 ± 3.1) %
Percent Cell Death (Vero cells; 100 μM): (14.3 ± 4.5) %
Percent Cell Death (Vero cells; 125 μM): (22.3 ± 1.8) %
Percent Cell Death (Vero cells; 250 μM): (28.7 ± 1.4) ^1) %
IC50 (Vero cells; Chlorocebus sabaeus, Vero, read-out: IC50 against the host Vero cells (toxicity)): ~400 µM
Percent Reduction of plaques compared to the control (HSV-1 [3]): 97.3%
Number of Plaques (HSV-1 [3]): 1.5 ± 0.3
Number of Plaques (HSV-1 [3]; listed as Rg3): 1.5±0.3
